# Laboratory results reported in patent US8329672B2, “Oral and/or topical compositions comprising prebiotics and fatty acid” (Cognis IP Management GmbH, priority 2004, dated 2012).
# Legend:
# [1] = tested on: Bifidobacterium; experiment: Stimulation of growth of Bifidobacterium in vitro (enumeration in human faecal homogenate culture); type: cell-based, Bifidobacterium spp; conditions: human faecal homogenate in diluted WC broth, incubated up to 24 hours, control 1.0 × 10^6
# Procedure: (§1) The stimulation of growth of microorganisms has been studied by enumerating bifidobacterium and lactobacilli in vitro in the presence of various test substances. More specifically, aliquots (1 mL) of human faecal homogenates (10 g per 100 mL diluent) were added to diluted WC broth (diluted 50:50 with 0.05M phosphate buffer) to which were added the test mixtures and a lactobacillus or bifidobacterium strain. For each of the combinations, parallel tubes were prepared with one set being inoculated with Bifidobacterium spp or Lactobacillus spp. All mixtures were then incubated for up to 24 hours and bacterial numbers enumerated.
# [2] = tested on: Lactobacterium; experiment: Stimulation of growth of lactobacilli in vitro (enumeration in human faecal homogenate culture); type: cell-based, Lactobacillus spp; conditions: human faecal homogenate in diluted WC broth, incubated up to 24 hours, control 2.8 × 10^5
# Procedure: as §1
Compound,Bacterial numbers (CFU/ml) ([1]; 1% prebiotic alone) [× × 10^7 CFU/ml],Bacterial numbers (CFU/ml) ([2]; 1% prebiotic alone) [× × 10^6 CFU/ml],Bacterial numbers (CFU/ml) ([1]; 1% fatty acid alone) [× × 10^6 CFU/ml],Bacterial numbers (CFU/ml) ([2]; 1% fatty acid alone) [× × 10^5 CFU/ml]
Betaglucan [C4],1.2,1.1,,
CLA-SE [C7],,,2.9,4.4
Lactolin [C3],1.6,1.5,,
"OC[C@H]1O[C@@H](O[C@H]2[C@H](O)[C@@H](O)[C@@H](O[C@]3(CO)O[C@H](CO)[C@@H](O)[C@@H]3O)O[C@@H]2CO)[C@H](O)[C@@H](O)[C@H]1O [C2, Lactosucrose]",1.1,1.1,,
CLA [C5],,,3.5,4.2
CLA-TG [C6],,,2.1,4.4
